Measured values from patent US7482345B2, “P38 kinase inhibiting agents” (priority 2005, dated 2009).

Molecular target: T1, Murine p38 (Mus musculus, UniProt P47811)
T1 construct: made in house; host or cells: Drosophila S2 cells (p38); E. coli (GST-ATF2)
Test: p38 kinase assay
Format: biochemical
Details: illustrative Examples; table does not say which of 'the above assays'
Method: Murine p38 containing the FLAG epitope tag was expressed in Drosophila S2 cells under transcriptional control of a copper-inducible metallothionein promoter. Expression of recombinant p38 was induced by treating transfected cells with 1 mM CuSO4 for 4 hours. To generate active recombinant murine p38, CuSO4-treated S2 cells were stimulated 10 minutes prior to harvest with 400 mM NaCl, 2 mM Na3VO4, and 100 μg/L okadaic acid. Cell pellets were washed with phosphate-buffered saline, 2 mM Na3VO4, and lysed in 20 mM Tris HCl, pH 7.5, 120 mM NaCl, 1% Triton X-100, 2 mM EDTA, 20 mM NaF, 4 mM Na3VO4, 2 mM Prefabloc SC (Boehringer Mannheim). Cell lysates were centrifuged for 10 min at 13,000×g, and activated, recombinant murine p38 was immunoaffinity purified from the lysate by column chromatography through anti-FLAG M2 resin (Kodak) that had been equilibrated with lysis buffer. After loading the extract the resin was washed with 10 column volumes of lysis buffer, 10 column volumes buffer A (10 mM Tris HCl, pH 7.5, 500 mM NaCl, 20% glycerol) and 10 column volumes of buffer B (10 mM Tris HCl pH 7.5, 150 mM NaCl, 20% glycerol). The fusion protein was eluted in buffer B containing 100 μg/mL FLAG peptide (Kodak).
The N-terminal 115 amino acids of ATF-2 was expressed in E. coli as a fusion protein with glutathione-S-transferase. The fusion protein was purified over glutathione agarose according to standard procedures (Pharmacia).
p38 kinase assays were performed in a reaction volume of 100 μL in a 96-well plate, at 30° for […] under the following conditions: 25 mM Hepes, pH 7.4, 10 mMmgCl2, 20 mM β-glycerolphosphate, 2 mM DTT, 5 μM ATP, 10 μCi [γ-33P]-ATP and ˜2 μM GST-ATF2. Serial dilutions of compounds were added to each reaction in 2 μL DMSO. 2 μL of DMSO was added to the last row of each reaction plate as the no inhibitor control for each inhibitor titration. The reaction was terminated with an equal volume of a stop solution containing 100 mM EDTA and 15 mM sodium pyrophosphate. PVDF filter plates (MAIPNOB50, Millipore) were pre-wet with methanol and washed with the stop solution. 50 μL aliquots from a single reaction were applied to the filter under vacuum, and the filter was washed twice with 75 mM phosphoric acid. The filter plates were counted in a scintillation counter (Top Count, Packard) and the percent inhibition at each compound concentration is determined.

T1 sequence (P47811 whole entry): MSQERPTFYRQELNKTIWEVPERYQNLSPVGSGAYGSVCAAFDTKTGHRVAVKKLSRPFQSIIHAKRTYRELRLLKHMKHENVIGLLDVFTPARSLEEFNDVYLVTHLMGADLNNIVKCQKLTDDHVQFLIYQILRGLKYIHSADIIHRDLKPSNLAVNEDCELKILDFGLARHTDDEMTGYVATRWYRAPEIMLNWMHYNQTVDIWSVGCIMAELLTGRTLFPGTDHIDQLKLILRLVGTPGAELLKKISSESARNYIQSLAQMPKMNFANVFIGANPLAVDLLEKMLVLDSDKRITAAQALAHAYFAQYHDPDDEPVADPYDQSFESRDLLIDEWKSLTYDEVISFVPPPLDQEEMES

Row | SMILES | IC50
1 | O=c1ccn2nc(NCc3ccc(F)cc3F)ccc2c1-c1c(F)cccc1F [Example 49] | 710 nM
2 | COc1ccc(C(=O)N2CCCC2)cc1-c1c(=O)ccn2nc(Oc3ccc(F)cc3F)ccc12 [Example 4, 2-(2,4-difluorophenoxy)-5-[2-methoxy-5-(pyrrolidin-1-ylcarbonyl)phenyl]-6H-pyrido[1,2-b]pyridazin-6-one] | 22 nM
3 | CCc1ccc(C(=O)N2CCCC2)cc1-c1c(=O)ccn2nc(Oc3ccc(F)cc3F)ccc12 [Example 14, 2-(2,4-difluorophenoxy)-5-[2-ethyl-5-(pyrrolidin-1-ylcarbonyl)phenyl]-6H-pyrido[1,2-b]pyridazin-6-one] | 59 nM

More lines, now with the values ahead:

Row | IC50 | SMILES
4 | 320 nM | O=c1ccn2cc(Sc3ccc(F)cc3F)ccc2c1-c1c(F)cccc1F [Example 52, 1-(2,6-difluorophenyl)-7-[(2,4-difluorophenyl)thio]-2H-quinolizin-2-one]
5 | 93 nM | O=c1ccn2cc(Cc3ccc(F)cc3F)ccc2c1-c1c(F)cccc1F [Example 53, 7-(2,4-difluorobenzyl)-1-(2,6-difluorophenyl)-2H-quinolizin-2-one]
